Values after ≈ are worked out from the molar mass of the structure shown. Where two headings read alike, the source gives them in different places.
Experiments:
CHI Log D procedure = type: physicochemical; conditions: pH 7.4, CHI Log D
Solubility in PBS = type: physicochemical
Procedure, shortened: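 The PBS solution was ultracentrifuged and the supernatant analyzed by HPLC. Its peak area was divided by that of a 50 μM peptide DMSO reference injection and multiplied by 50 uM to give solubility.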

[1] = molecular target: T1, full-length beta-Catenin (Uniprot ID P35222) (Homo sapiens, UniProt P35222); experiment: Fluorescence polarization IC50 (beta-catenin / 5FAM-TCF4 10-53 competition); type: binding; conditions: read-out: beta-Catenin FP IC50
T1 construct: 10 nM full-length beta-Catenin (Uniprot ID P35222)
T1 sequence (P35222 1-781): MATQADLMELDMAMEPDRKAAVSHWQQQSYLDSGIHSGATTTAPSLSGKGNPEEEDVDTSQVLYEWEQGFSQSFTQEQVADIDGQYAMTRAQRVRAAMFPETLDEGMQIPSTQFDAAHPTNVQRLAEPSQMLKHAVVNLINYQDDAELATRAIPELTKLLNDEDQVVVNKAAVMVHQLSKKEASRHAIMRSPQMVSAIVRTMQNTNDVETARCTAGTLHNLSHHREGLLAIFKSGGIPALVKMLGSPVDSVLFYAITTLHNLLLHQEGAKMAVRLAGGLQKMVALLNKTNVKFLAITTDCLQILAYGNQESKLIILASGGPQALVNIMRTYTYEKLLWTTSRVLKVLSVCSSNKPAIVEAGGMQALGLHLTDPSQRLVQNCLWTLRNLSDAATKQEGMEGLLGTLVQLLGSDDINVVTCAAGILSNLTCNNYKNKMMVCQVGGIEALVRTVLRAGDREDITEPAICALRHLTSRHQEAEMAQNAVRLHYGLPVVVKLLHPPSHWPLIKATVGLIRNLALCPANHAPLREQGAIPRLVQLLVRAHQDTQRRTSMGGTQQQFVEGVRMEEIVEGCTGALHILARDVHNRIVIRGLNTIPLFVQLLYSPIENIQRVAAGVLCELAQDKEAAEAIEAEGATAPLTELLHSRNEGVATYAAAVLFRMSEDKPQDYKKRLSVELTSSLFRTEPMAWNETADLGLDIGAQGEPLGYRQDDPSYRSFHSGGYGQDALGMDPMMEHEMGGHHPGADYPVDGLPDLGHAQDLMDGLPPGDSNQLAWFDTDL

[2] = molecular target: T2, beta-catenin/TCF4 engagement (Homo sapiens, UniProt P35222); experiment: Nano-BRET target engagement assay (B-cat-Halo & TCF4-Luc in HEK293 cells); type: cell-based; conditions: read-out: NanoBRET Abs IC50
T2 construct: expressed in transfected cells; host or cells: HEK293
T2 sequence (P35222 1-781): T1 sequence (P35222 1-781)

Row | chromatographic logD (CHI Log D procedure) | Solubility (Solubility in PBS) [µM] | IC50 [1] [µM] | IC50 [2] [µM] | Solubility (Solubility in PBS; Solubility (uM)) [µM] | IC50 ([2]; absolute IC50) [µM] | Structure (SMILES)
1 | 2.61 | 10 (≈ 21.9 µg/mL) | 0.06 | 37.9 | – | – | CC(=O)N1CCC[C@]12CC=CCCCC1(CCCC=CCCCOC(=O)N3CC[C@@](C(=O)N[C@@H](Cc4ccccc4Cl)C(=O)N[C@@H](Cc4csc5ccccc45)C(=O)N[C@@H](CCC(N)=O)C(=O)NCCCCCCN)(C3)NC(=O)[C@H](Cc3ccccc3)NC(=O)[C@H](Cc3ccccc3)NC(=O)[C@H](C)NC(=O)[C@H](C)NC(=O)[C@H](CN(CC(=O)O)CC(F)(F)F)NC(=O)[C@H](CC(=O)O)NC1=O)NC(=O)[C@H](CC(C)(C)C)NC(=O)[C@H](CC(=O)O)NC2=O (stereo partly drawn) [I-1012, Ac-PL3-Asp-Npg-B5-Asp-TfeGA-Ala-Ala-Phe-Phe-PyrS2-2C1F-BztA-Gln-6AmHex]
2 | 2.13 | – | 0.008 | 12.4 | 47 (≈ 90.9 µg/mL) | – | CC(=O)N1CCC[C@]12CC=CCCCC1(CCCC=CCCCOC(=O)N3CC[C@@](C(=O)N[C@@H](Cc4ccccc4Cl)C(=O)N[C@@H](Cc4csc5ccccc45)C(=O)N[C@@H](CCC(N)=O)C(N)=O)(C3)NC(=O)[C@H]([C@@H](C)O)NC(=O)[C@H](Cc3ccccc3)NC(=O)[C@H](C)NC(=O)[C@H](C)NC(=O)[C@H](CC(=O)O)NC(=O)[C@H](CC(=O)O)NC1=O)NC(=O)[C@H](CC(C)(C)C)NC(=O)[C@H](CC(=O)O)NC2=O (stereo partly drawn) [I-1013, Ac-PL3-Asp-Npg-B5-Asp-Asp-Ala-Ala-Phe-Thr-PyrS2-2C1F-BztA-Gln-NH2]
3 | 2.38 | 10 (≈ 19.3 µg/mL) | 0.019 | 14.3 | – | – | CC(=O)N1CCC[C@]12CC=CCCCC1(CCCC=CCCCOC(=O)N3CC[C@@](C(=O)N[C@@H](Cc4ccccc4Cl)C(=O)N[C@@H](Cc4csc5ccccc45)C(=O)N[C@@H](CCC(N)=O)C(N)=O)(C3)NC(=O)[C@H]([C@@H](C)O)NC(=O)[C@H](Cc3ccccc3)NC(=O)[C@H](C)NC(=O)[C@H](C)NC(=O)[C@H](CC(N)=O)NC(=O)[C@H](CC(=O)O)NC1=O)NC(=O)[C@H](CC(C)(C)C)NC(=O)[C@H](CC(=O)O)NC2=O (stereo partly drawn) [I-1014, Ac-PL3-Asp-Npg-B5-Asp-Asn-Ala-Ala-Phe-Thr-PyrS2-2C1F-BztA-Gln-NH2]
4 | 2.35 | 10 (≈ 19.2 µg/mL) | 0.026 | 25.8 | – | – | CC(=O)N1CCC[C@]12CC=CCCCC1(CCCC=CCCCOC(=O)N3CC[C@@](C(=O)N[C@@H](Cc4ccccc4Cl)C(=O)N[C@@H](Cc4csc5ccccc45)C(=O)N[C@@H](CCC(N)=O)C(N)=O)(C3)NC(=O)[C@H](CO)NC(=O)[C@H](Cc3ccccc3)NC(=O)[C@H](C)NC(=O)[C@H](C)NC(=O)[C@H](CC(N)=O)NC(=O)[C@H](CC(=O)O)NC1=O)NC(=O)[C@H](CC(C)(C)C)NC(=O)[C@H](CC(=O)O)NC2=O (stereo partly drawn) [I-1018, Ac-PL3-Asp-Npg-B5-Asp-Asn-Ala-Ala-Phe-Ser-PyrS2-2C1F-BztA-Gln-NH2]
5 | 2.05 | – | 0.005 | – | 44 (≈ 84.4 µg/mL) | 11.5 | CC(=O)N1CCC[C@]12CC=CCCCC1(CCCC=CCCCOC(=O)N3CC[C@@](C(=O)N[C@@H](Cc4ccccc4F)C(=O)N[C@@H](Cc4csc5ccccc45)C(=O)N[C@@H](CCC(N)=O)C(N)=O)(C3)NC(=O)[C@H]([C@@H](C)O)NC(=O)[C@H](Cc3ccccc3)NC(=O)[C@H](C)NC(=O)[C@H](C)NC(=O)[C@H](CC(=O)O)NC(=O)[C@H](CC(=O)O)NC1=O)NC(=O)[C@H](CC(C)(C)C)NC(=O)[C@H](CC(=O)O)NC2=O (stereo partly drawn) [I-1021, Ac-PL3-Asp-Npg-B5-Asp-Asp-Ala-Ala-Phe-Thr-PyrS2-2FF-BztA-Gln-NH2]
6 | 2.29 | – | 0.033 | 13.7 | 20 (≈ 38.3 µg/mL) | – | CC(=O)N1CCC[C@]12CC=CCCCC1(CCCC=CCCCOC(=O)N3CC[C@@](C(=O)N[C@@H](Cc4ccccc4F)C(=O)N[C@@H](Cc4csc5ccccc45)C(=O)N[C@@H](CCC(N)=O)C(N)=O)(C3)NC(=O)[C@H]([C@@H](C)O)NC(=O)[C@H](Cc3ccccc3)NC(=O)[C@H](C)NC(=O)[C@H](C)NC(=O)[C@H](CC(N)=O)NC(=O)[C@H](CC(=O)O)NC1=O)NC(=O)[C@H](CC(C)(C)C)NC(=O)[C@H](CC(=O)O)NC2=O (stereo partly drawn) [I-1022, Ac-PL3-Asp-Npg-B5-Asp-Asn-Ala-Ala-Phe-Thr-PyrS2-2FF-BztA-Gln-NH2]
7 | 2.17 | – | 0.01 | 15 | 46 (≈ 86.3 µg/mL) | – | CC(=O)N1CCC[C@]12CC=CCCCC1(CCCC=CCCCOC(=O)N3CC[C@@](C(=O)N[C@@H](Cc4ccccc4F)C(=O)N[C@@H](Cc4csc5ccccc45)C(=O)N[C@@H](CO)C(N)=O)(C3)NC(=O)[C@H]([C@@H](C)O)NC(=O)[C@H](Cc3ccccc3)NC(=O)[C@H](C)NC(=O)[C@H](C)NC(=O)[C@H](CC(=O)O)NC(=O)[C@H](CC(=O)O)NC1=O)NC(=O)[C@H](CC(C)(C)C)NC(=O)[C@H](CC(=O)O)NC2=O (stereo partly drawn) [I-1023, Ac-PL3-Asp-Npg-B5-Asp-Asp-Ala-Ala-Phe-Thr-PyrS2-2FF-BztA-Ser-NH2]
8 | 2.42 | – | 0.011 | – | 47 (≈ 90.9 µg/mL) | 8.8 | CC(=O)N1CCC[C@]12CC=CCCCC1(CCCC=CCCCOC(=O)N3CC[C@@](C(=O)N[C@@H](Cc4ccccc4Cl)C(=O)N[C@@H](Cc4csc5ccccc45)C(=O)N[C@@H](C(N)=O)[C@H](C)O)(C3)NC(=O)[C@H](CC(N)=O)NC(=O)[C@H](Cc3ccccc3)NC(=O)[C@H](C)NC(=O)[C@H](C)NC(=O)[C@H](CCC(=O)O)NC(=O)[C@H](CC(=O)O)NC1=O)NC(=O)[C@H](CC(C)(C)C)NC(=O)[C@H](CC(=O)O)NC2=O (stereo partly drawn) [I-1031, Ac-PL3-Asp-Npg-B5-Asp-Glu-Ala-Ala-Phe-Asn-PyrS2-2C1F-BztA-dThr-NH2]
9 | 2.43 | – | 0.015 | 10.4 | 44 (≈ 83.3 µg/mL) | – | CC(=O)N1CCC[C@]12CC=CCCCC1(CCCC=CCCCOC(=O)N3CC[C@@](C(=O)N[C@@H](Cc4ccccc4Cl)C(=O)N[C@@H](Cc4csc5ccccc45)C(=O)N[C@@H](C(N)=O)[C@H](C)O)(C3)NC(=O)[C@H](CO)NC(=O)[C@H](Cc3ccccc3)NC(=O)[C@H](C)NC(=O)[C@H](C)NC(=O)[C@H](CC(=O)O)NC(=O)[C@H](CC(=O)O)NC1=O)NC(=O)[C@H](CC(C)(C)C)NC(=O)[C@H](CC(=O)O)NC2=O (stereo partly drawn) [I-1032, Ac-PL3-Asp-Npg-B5-Asp-Asp-Ala-Ala-Phe-Ser-PyrS2-2C1F-BztA-dThr-NH2]
10 | 2.5 | – | 0.01 | 8.6 | 34 (≈ 64.8 µg/mL) | – | CC(=O)N1CCC[C@]12CC=CCCCC1(CCCC=CCCCOC(=O)N3CC[C@@](C(=O)N[C@@H](Cc4ccccc4Cl)C(=O)N[C@@H](Cc4csc5ccccc45)C(=O)N[C@@H](C(N)=O)[C@H](C)O)(C3)NC(=O)[C@H]([C@@H](C)O)NC(=O)[C@H](Cc3ccccc3)NC(=O)[C@H](C)NC(=O)[C@H](C)NC(=O)[C@H](CC(=O)O)NC(=O)[C@H](CC(=O)O)NC1=O)NC(=O)[C@H](CC(C)(C)C)NC(=O)[C@H](CC(=O)O)NC2=O (stereo partly drawn) [I-1033, Ac-PL3-Asp-Npg-B5-Asp-Asp-Ala-Ala-Phe-Thr-PyrS2-2ClF-BztA-dThr-NH2]
11 | 2.27 | 50 (≈ 98.6 µg/mL) | 0.008 | – | – | 9.3 | CC(=O)N1CCC[C@]12CC=CCCCC1(CCCC=CCCCOC(=O)N3CC[C@@](C(=O)N[C@@H](Cc4ccccc4Cl)C(=O)N[C@@H](Cc4csc5ccccc45)C(=O)N[C@@H](CCC(N)=O)C(N)=O)(C3)NC(=O)[C@H](CC(N)=O)NC(=O)[C@H](Cc3ccccc3)NC(=O)[C@H](C)NC(=O)[C@H](C)NC(=O)[C@H](CC(=O)O)NC(=O)[C@H](CC(=O)O)NC1=O)NC(=O)[C@H](CC1CCCCC1)NC(=O)[C@H](CC(=O)O)NC2=O (stereo partly drawn) [I-1040, Ac-PL3-Asp-Cha-B5-Asp-Asp-Ala-Ala-Phe-Asn-PyrS2-2C1F-BztA-Gln-NH2]
